Data taken from patent publication US6914045B2, “Glycopeptide antibiotics” (Wyeth Holdings Corporation, priority 2001, dated 2005).
Converted amounts (≈) assume the structure as drawn.

What was measured:
[1] = anatomic pathology (histopathology of heart and kidney) in mice; format: in vivo; settings: CD-1 mice, 20 mg/kg intravenously daily for 9 days, necropsy day 10, microscopic histopathology
Method: Samples of tissues from necropsied mice were formalin-fixed, paraffin-embedded, sectioned, stained with hematoxylin and eosin, and examined microscopically. Histopathologic findings were recorded. These findings were subjectively graded on a scale corresponding to slight, mild, moderate, marked and severe as compared to untreated controls.

Staphylococcus sp. = test: in vitro antibacterial evaluation, MIC by broth dilution; format: cell-based; settings: broth dilution, 18 hours at 35° C.; for MIC Staphylococcus aureus (ATCC 29213): strain ATCC 29213; for MIC Staphylococcus aureus (GC 1131): strain GC 1131; for MIC Staphylococcus aureus (GC 3051): strain GC 3051; for MIC Staphylococcus aureus (GC 3053): strain GC 3053; for MIC Staphylococcus aureus (GC 4541): strain GC 4541; for MIC Staphylococcus aureus (GC 4542): strain GC 4542; for MIC Staphylococcus aureus-SMITH (GC 4543): strain GC 4543; for MIC Staphylococcus aureus (GC 4544): strain GC 4544; for MIC Staphylococcus aureus (GC 4545): strain GC 4545; for MIC Staphylococcus haemolyticus (GC 4546): strain GC 4546; for MIC Coagulase Negative Staphylococcus (GC 4547): strain GC 4547; for MIC Coagulase Negative Staphylococcus (GC 4548): strain GC 4548; for MIC Coagulase Negative Staphylococcus (GC 4549): strain GC 4549; for MIC Coagulase Negative Staphylococcus (GC 4551): strain GC 4551
Method in brief: (§1)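 Following National Committee for Clinical Laboratory Standards recommendations (M7-A2), susceptibility was measured by dilution in Muller-Hinton II […]. Bacteria were seeded at 5×10^5 CFU/mL against compound concentrations from 64 down to 0.06 μg/mL.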

Enterococcus sp. = test: as above; format: cell-based; settings: broth dilution, 18 hours at 35° C.
Method in brief: as §1

Streptococcus sp. = test: as above; format: cell-based; settings: broth dilution, 18 hours at 35° C.
Method in brief: as §1

Escherichia coli = test: as above; format: cell-based; settings: 18 hours at 35° C.
Method in brief: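 Broth dilution in Muller-Hinton II medium per NCCLS standard M7-A2, with an inoculum of 5×10^5 CFU/mL and antibiotic tested over 64-0.06 μg/mL. MIC was taken as the lowest concentration inhibiting visible growth.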

[2] = Enterococcus faecalis (ATCC 29212)
[3] = Enterococcus faecalis (GC 4552)
[4] = Enterococcus faecalis (GC 4553)
[5] = Enterococcus faecalis (GC 4554)
[6] = Enterococcus faecalis (GC 6189)

CN=C1N(C)CC(CC2NC(=O)C(Cc3ccc(OC4OC(CO)C(OC5OC(CO)C(O)C(O)C5O)C(O)C4O)cc3)NC(=O)C(C(C)c3ccccc3)NC(=O)CNC(=O)C(CO)NC(=O)C(CC3CN(C)C(=NC)N3C3OC(CO)C(O)C(O)C3O)NC2=O)N1C (stereo not drawn) [Example 74, Cyclo[3-[1,3-dimethyl-2-(methylimino)imidazolidin-4-yl]alanyl-3-[3-hexopyranosyl-1-methyl-2-(methylimino)imidazolidin-4-yl]alanylserylglycyl-β-methylphenylalanyl-O-(4-O-hexopyranosylhexopyranosyl)tyrosyl]]
Anatomical Pathology (Day 10), Heart [1]: 0 | Anatomical Pathology (Day 10), Kidney [1]: 0 | MIC Staphylococcus aureus (ATCC 29213) (Staphylococcus sp.): >128 µg/mL | MIC Staphylococcus aureus (GC 1131) (Staphylococcus sp.): >128 µg/mL | MIC Staphylococcus aureus (GC 3051) (Staphylococcus sp.): >128 µg/mL | MIC Staphylococcus aureus (GC 3053) (Staphylococcus sp.): >128 µg/mL | MIC Staphylococcus aureus (GC 4541) (Staphylococcus sp.): >128 µg/mL | MIC Staphylococcus aureus (GC 4542) (Staphylococcus sp.): >128 µg/mL | MIC Staphylococcus aureus-SMITH (GC 4543) (Staphylococcus sp.): >128 µg/mL | MIC Staphylococcus aureus (GC 4544) (Staphylococcus sp.): >128 µg/mL | MIC Staphylococcus aureus (GC 4545) (Staphylococcus sp.): >128 µg/mL | MIC Staphylococcus haemolyticus (GC 4546) (Staphylococcus sp.): >128 µg/mL | MIC Coagulase Negative Staphylococcus (GC 4547) (Staphylococcus sp.): >128 µg/mL | MIC Coagulase Negative Staphylococcus (GC 4548) (Staphylococcus sp.): >128 µg/mL | MIC Coagulase Negative Staphylococcus (GC 4549) (Staphylococcus sp.): >128 µg/mL | MIC Coagulase Negative Staphylococcus (GC 4551) (Staphylococcus sp.): >128 µg/mL | MIC Coagulase Negative Staphylococcus (GC 6257) (Staphylococcus sp.; strain GC 6257): >128 µg/mL | MIC Enterococcus avium (GC 4558) (Enterococcus sp.; Enterococcus avium (GC 4558)): 128 µg/mL (≈ 96 µM) | MIC Enterococcus faecalis (ATCC 29212) (Enterococcus sp.; [2]): >128 µg/mL | MIC Enterococcus faecalis (GC 4552) (Enterococcus sp.; [3]): >128 µg/mL | MIC Enterococcus faecalis (GC 4553) (Enterococcus sp.; [4]): >128 µg/mL | MIC Enterococcus faecalis (GC 4554) (Enterococcus sp.; [5]): >128 µg/mL | MIC Enterococcus faecalis (GC 6189) (Enterococcus sp.; [6]): >128 µg/mL | MIC Enterococcus faecium (GC 2243) (Enterococcus sp.; Enterococcus faecium (GC 2243)): >128 µg/mL | MIC Enterococcus faecium (GC 4556) (Enterococcus sp.; Enterococcus faecium (GC 4556)): >128 µg/mL | MIC Enterococcus faecium (GC 4557) (Enterococcus sp.; Enterococcus faecium (GC 4557)): 128 µg/mL (≈ 96 µM) | MIC Enterococcus avium (GC 4558) (Enterococcus sp.): 128 µg/mL (≈ 96 µM) | MIC Enterococcus faecalis (ATCC 29212) (Enterococcus sp.): >128 µg/mL | MIC Enterococcus faecalis (GC 2242) (Enterococcus sp.): >128 µg/mL | MIC Enterococcus faecalis (GC 2691) (Enterococcus sp.): >128 µg/mL | MIC Enterococcus faecalis (GC 3059) (Enterococcus sp.): >128 µg/mL | MIC Enterococcus faecalis (GC 4552) (Enterococcus sp.): >128 µg/mL | MIC Enterococcus faecalis (GC 4553) (Enterococcus sp.): >128 µg/mL | MIC Enterococcus faecalis (GC 4554) (Enterococcus sp.): >128 µg/mL | MIC Enterococcus faecalis (GC 6189) (Enterococcus sp.): >128 µg/mL | MIC Enterococcus faecium (GC 2243) (Enterococcus sp.): >128 µg/mL | MIC Enterococcus faecium (GC 4556) (Enterococcus sp.): >128 µg/mL | MIC Enterococcus faecium (GC 4557) (Enterococcus sp.): 128 µg/mL (≈ 96 µM) | MIC Enterococcus faecalis (GC 2242) (Enterococcus sp.; strain GC 2242): >128 µg/mL | MIC Enterococcus faecalis (GC 2691) (Enterococcus sp.; strain GC 2691): >128 µg/mL | MIC Enterococcus faecalis (GC 3059) (Enterococcus sp.; strain GC 3059): >128 µg/mL | MIC Streptococcus agalactiae (GC 4564) (Streptococcus sp.): 128 µg/mL (≈ 96 µM) | MIC Streptococcus pneumoniae (ATCC 6301) (Streptococcus sp.): >128 µg/mL | MIC Streptococcus pneumoniae (GC 1894) (Streptococcus sp.): 128 µg/mL (≈ 96 µM) | MIC Streptococcus pneumoniae (GC 4565) (Streptococcus sp.): >128 µg/mL | MIC Streptococcus pyogenes (GC 4563) (Streptococcus sp.): >128 µg/mL | MIC Streptococcus pneumoniae (ATCC 6301) (Streptococcus sp.; strain ATCC 6301): >128 µg/mL | MIC Streptococcus pneumoniae (GC 1894) (Streptococcus sp.; strain GC 1894): 128 µg/mL (≈ 96 µM) | MIC Streptococcus pyogenes (GC 4563) (Streptococcus sp.; strain GC 4563): >128 µg/mL | MIC Streptococcus agalactiae (GC 4564) (Streptococcus sp.; strain GC 4564): 128 µg/mL (≈ 96 µM) | MIC Streptococcus pneumoniae (GC 4565) (Streptococcus sp.; strain GC 4565): >128 µg/mL | MIC Escherichia coli (ATCC 25922) (Escherichia coli): >128 µg/mL | MIC Escherichia coli (GC 4559) (Escherichia coli): >128 µg/mL | MIC Escherichia coli (GC 4560) (Escherichia coli): >128 µg/mL

CC(c1ccccc1)C1NC(=O)CNC(=O)C(CO)NC(=O)C(C(O)C2CN(Cc3ccc(-c4ccccc4)cc3)C(=N)N2C2OC(CO)C(O)C(O)C2O)NC(=O)C(C(O)C2CNC(=N)N2)NC(=O)C(Cc2ccc(OC3OC(CO)C(OC4OC(CO)C(O)C(O)C4O)C(O)C3O)cc2)NC1=O (centres unmarked) [Example 66a]
Anatomical Pathology (Day 10), Heart [1]: 0 | Anatomical Pathology (Day 10), Kidney [1]: ++ | MIC Staphylococcus aureus (ATCC 29213) (Staphylococcus sp.): >128 µg/mL | MIC Staphylococcus aureus (GC 1131) (Staphylococcus sp.): >128 µg/mL | MIC Staphylococcus aureus (GC 3051) (Staphylococcus sp.): >128 µg/mL | MIC Staphylococcus aureus (GC 3053) (Staphylococcus sp.): >128 µg/mL | MIC Staphylococcus aureus (GC 4541) (Staphylococcus sp.): >128 µg/mL | MIC Staphylococcus aureus (GC 4542) (Staphylococcus sp.): >128 µg/mL | MIC Staphylococcus aureus-SMITH (GC 4543) (Staphylococcus sp.): >128 µg/mL | MIC Staphylococcus aureus (GC 4544) (Staphylococcus sp.): >128 µg/mL | MIC Staphylococcus aureus (GC 4545) (Staphylococcus sp.): >128 µg/mL | MIC Staphylococcus haemolyticus (GC 4546) (Staphylococcus sp.): >128 µg/mL | MIC Coagulase Negative Staphylococcus (GC 4547) (Staphylococcus sp.): >128 µg/mL | MIC Coagulase Negative Staphylococcus (GC 4548) (Staphylococcus sp.): >128 µg/mL | MIC Coagulase Negative Staphylococcus (GC 4549) (Staphylococcus sp.): >128 µg/mL | MIC Coagulase Negative Staphylococcus (GC 4551) (Staphylococcus sp.): >128 µg/mL | MIC Enterococcus avium (GC 4558) (Enterococcus sp.; Enterococcus avium (GC 4558)): 128 µg/mL (≈ 87.6 µM) | MIC Enterococcus faecalis (ATCC 29212) (Enterococcus sp.; [2]): >128 µg/mL | MIC Enterococcus faecalis (GC 4552) (Enterococcus sp.; [3]): >128 µg/mL | MIC Enterococcus faecalis (GC 4553) (Enterococcus sp.; [4]): >128 µg/mL | MIC Enterococcus faecalis (GC 4554) (Enterococcus sp.; [5]): >128 µg/mL | MIC Enterococcus faecalis (GC 6189) (Enterococcus sp.; [6]): >128 µg/mL | MIC Enterococcus faecium (GC 2243) (Enterococcus sp.; Enterococcus faecium (GC 2243)): >128 µg/mL | MIC Enterococcus faecium (GC 4556) (Enterococcus sp.; Enterococcus faecium (GC 4556)): >128 µg/mL | MIC Enterococcus faecium (GC 4557) (Enterococcus sp.; Enterococcus faecium (GC 4557)): >128 µg/mL | MIC Enterococcus avium (GC 4558) (Enterococcus sp.): 128 µg/mL (≈ 87.6 µM) | MIC Enterococcus faecalis (ATCC 29212) (Enterococcus sp.): >128 µg/mL | MIC Enterococcus faecalis (GC 2242) (Enterococcus sp.): >128 µg/mL | MIC Enterococcus faecalis (GC 2691) (Enterococcus sp.): >128 µg/mL | MIC Enterococcus faecalis (GC 3059) (Enterococcus sp.): >128 µg/mL | MIC Enterococcus faecalis (GC 4552) (Enterococcus sp.): >128 µg/mL | MIC Enterococcus faecalis (GC 4553) (Enterococcus sp.): >128 µg/mL | MIC Enterococcus faecalis (GC 4554) (Enterococcus sp.): >128 µg/mL | MIC Enterococcus faecalis (GC 6189) (Enterococcus sp.): >128 µg/mL | MIC Enterococcus faecium (GC 2243) (Enterococcus sp.): >128 µg/mL | MIC Enterococcus faecium (GC 4556) (Enterococcus sp.): >128 µg/mL | MIC Enterococcus faecium (GC 4557) (Enterococcus sp.): >128 µg/mL | MIC Enterococcus faecalis (GC 2242) (Enterococcus sp.; strain GC 2242): >128 µg/mL | MIC Enterococcus faecalis (GC 2691) (Enterococcus sp.; strain GC 2691): >128 µg/mL | MIC Enterococcus faecalis (GC 3059) (Enterococcus sp.; strain GC 3059): >128 µg/mL | MIC Streptococcus agalactiae (GC 4564) (Streptococcus sp.): >128 µg/mL | MIC Streptococcus pneumoniae (ATCC 6301) (Streptococcus sp.): >128 µg/mL | MIC Streptococcus pneumoniae (GC 1894) (Streptococcus sp.): >128 µg/mL | MIC Streptococcus pneumoniae (GC 4565) (Streptococcus sp.): >128 µg/mL | MIC Streptococcus pyogenes (GC 4563) (Streptococcus sp.): >128 µg/mL | MIC Streptococcus pneumoniae (ATCC 6301) (Streptococcus sp.; strain ATCC 6301): >128 µg/mL | MIC Streptococcus pneumoniae (GC 1894) (Streptococcus sp.; strain GC 1894): >128 µg/mL | MIC Streptococcus pyogenes (GC 4563) (Streptococcus sp.; strain GC 4563): >128 µg/mL | MIC Streptococcus agalactiae (GC 4564) (Streptococcus sp.; strain GC 4564): >128 µg/mL | MIC Streptococcus pneumoniae (GC 4565) (Streptococcus sp.; strain GC 4565): >128 µg/mL | MIC Escherichia coli (ATCC 25922) (Escherichia coli): >128 µg/mL | MIC Escherichia coli (GC 4559) (Escherichia coli): >128 µg/mL | MIC Escherichia coli (GC 4560) (Escherichia coli): 8 µg/mL (≈ 5.47 µM)
